How the values were obtained:
[1] = test system: stalled translation reaction (myc-dA30 in rabbit reticulocyte lysate); conditions: 130 μM added to stalled translation reaction; 500 mM KCl, 20 mM MgCl2; anti-myc immunoprecipitation
From the text: Myc dsDNA was generated by standard methods of PCR to include a 5′-T7 promoter for in vitro synthesis of mRNA using T7 polymerase and a deletion mutant of the tobacco mosaic virus 5′-UTR to induce efficient translation initiation in rabbit reticulocyte lysates. The 3′-end of the myc construct was devoid of stop codons to prevent protein release from the ribosome.
Transcription of the myc PCR product (using the MegaSHORTscript kit, Ambion) gave large quantities of RNA using T7 RNA polymerase. Purified RNA was then subjected to a splinted ligation reaction with a 5′-phosphorylated dA30 oligonucleotide catalyzed by T4 DNA ligase. The 3′-dA30 region facilitates ribosomal stalling and thereby increases the proportion of RNA-ribosome-protein complexes available for labeling. The purified myc-dA30 construct was then translated in rabbit reticulocyte lysate (Ambion) with ^35S-methionine and stalled under high salt conditions (500 mM KCl, 20 mM MgCl2).
Biotin-TEG-dCdCdA was used as a control. The radiolabled myc peptide was then isolated by immunoprecipitation with an anti-myc monoclonal antibody (Chemicon) and protein A sepharose (Sigma). Control and C-terminally-labeled peptide were then applied to a microscope slide prefunctionalized with NeutrAvidin™ (Pierce).

[2] = molecular target: ribosomal peptidyl transferase; conditions: ribosomal peptidyl transferase site; cited from earlier work
[3] = test system: stalled translation reaction (10Fn3-dA30 in rabbit reticulocyte lysate); conditions: labeling as in the myc experiment; Co2+-NTA purification

Row | Molecule | immobilization of 35S-labeled myc epitope on NeutrAvidin slide (phosphorimaging) [1] | Kd of unmodified puromycin [2] | immobilization of radiolabeled 10Fn3 on NeutrAvidin-spotted chip (phosphorimaging) [3]
1 | Biotin-TEG-dCdCdA | no significant label | – | –
2 | COc1ccc(C[C@H](N)C(=O)N[C@H]2[C@@H](O)[C@H](n3cnc4c(N(C)C)ncnc43)O[C@@H]2CO)cc1 [puromycin] | – | in the micromolar range | –
3 | Biotin-TEG-dCdC-puromycin | biotin-dependent immobilization of myc epitope to the chip surface | – | presence of radiolabeled ^10Fn3
